Measured values from the supplement of paper PMC10307832.

Assays:
Test in all cases: relative viability (nuclei count vs DMSO), 5 days (fraction); higher = more cells survive
[1] = compound: CC(C)C[C@H](NC(=O)[C@H](Cc1ccccc1)NC(=O)c1cnccn1)B(O)O [Bortezomib] + O=C(c1cc(Cc2n[nH]c(=O)c3ccccc23)ccc1F)N1CCN(C(=O)C2CC2)CC1 [Olaparib] (partner 8 µM)
How it was run: (§1)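 Medians of duplicate plates are given as relative viability. That measure is the nuclei count in treated wells divided by the count in vehicle wells. Counts were taken on 4× images of lung cancer cell lines in 1536-well plates, 5 days after pin-tool dosing the day after seeding with one drug alone or a fixed anchor-drug dose plus five library-drug doses (not always all listed) in √10 steps.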

[2] = compound: CC(C)C[C@H](NC(=O)[C@H](Cc1ccccc1)NC(=O)c1cnccn1)B(O)O [Bortezomib] + Nc1nc2[nH]cc(CCc3ccc(C(=O)N[C@@H](CCC(=O)O)C(=O)O)cc3)c2c(=O)[nH]1 [Pemetrexed] (partner 0.2 µM)
How it was run: as §1

[3] = compound: CC1=CC(=NN1)NC2=CC(=NC(=N2)/C=C/C3=CC=CC=C3)N4CCN(CC4)C + N=C(N)NC(=N)NCCc1ccccc1 [Phenformin] (partner 250 µM)
How it was run: as §1

[4] = compound: COC1=CC(c2cc3ccccc3[nH]2)=N/C1=C\c1[nH]c(C)cc1C [Obatoclax] + C[C@@H](Oc1cc(-c2cnn(C3CCNCC3)c2)cnc1N)c1c(Cl)ccc(F)c1Cl [Crizotinib] (partner 1 µM)
How it was run: as §1

Cell Line	relative viability ([1]; first compound 0.0002 µM)	relative viability ([1]; first compound 0.000632 µM)	relative viability ([1]; first compound 0.002 µM)	relative viability ([1]; first compound 0.006325 µM)	relative viability ([1]; first compound 0.02 µM)	relative viability ([2]; first compound 0.0002 µM)	relative viability ([2]; first compound 0.000632 µM)	relative viability ([2]; first compound 0.002 µM)	relative viability ([2]; first compound 0.006325 µM)	relative viability ([2]; first compound 0.02 µM)	relative viability ([3]; first compound 0.08 µM)	relative viability ([3]; first compound 0.253 µM)	relative viability ([3]; first compound 0.8 µM)	relative viability ([3]; first compound 2.53 µM)	relative viability ([3]; first compound 8 µM)	relative viability ([4]; first compound 0.01 µM)	relative viability ([4]; first compound 0.03162 µM)	relative viability ([4]; first compound 0.1 µM)	relative viability ([4]; first compound 0.3162 µM)	relative viability ([4]; first compound 1 µM)
PC-3 [JPC-3]	1.08	1.14	0.451	0.236	0.216	1.02	1.14	0.727	0.196	0.184	0.456	0.475	0.498	0.472	0.437	0.942	0.892	0.949	0.984	0.917
HCC-44	0.942	0.986	0.99	0.715	0.315	0.674	0.723	0.615	0.631	0.256	0.123	0.326	0.215	0.102	0.115	0.786	0.684	0.8	0.721	0.228
NCI-H2405	0.859	0.834	0.334	0.199	0.161	1.02	0.792	1.11	0.121	0.14	0.377	0.307	0.422	0.244	0.1	0.821	0.832	–	0.826	0.867
LXF-289	1.01	1.03	–	0.0822	0.0818	0.884	0.884	0.962	0.442	0.0884	0.478	0.464	0.496	0.265	0.114	0.796	0.8	0.83	0.822	0.679
LOU-NH91	0.893	0.84	0.348	0.318	0.286	0.396	0.446	0.361	0.281	0.284	0.7	0.768	0.78	0.509	0.365	0.768	0.628	0.703	0.874	0.759
A549	0.355	0.401	0.49	0.291	0.189	–	–	–	–	–	0.178	0.181	0.195	0.0435	0.025	0.75	0.799	0.752	0.664	0.0778
H3255	0.579	0.545	0.36	0.233	0.237	0.6	0.603	0.479	0.378	0.344	0.369	0.362	0.684	0.341	0.27	0.773	0.87	0.828	0.624	0.697
NCI-H1395	0.474	0.45	0.361	0.336	0.328	0.77	0.767	0.579	0.26	0.264	0.494	0.434	0.427	0.327	0.264	–	–	–	–	–
LC-2-ad	0.68	0.723	0.782	0.194	0.184	0.255	0.271	0.255	0.252	0.185	0.554	0.571	0.501	0.251	0.172	0.424	0.455	–	0.412	0.425
NCI-H838	0.739	0.789	0.792	0.124	0.0906	0.252	0.231	0.264	0.161	0.161	0.567	0.583	0.462	0.123	0.107	0.848	0.959	0.827	0.77	0.777
Calu-6	0.509	0.524	0.529	0.0855	0.0795	–	–	–	–	–	–	–	–	–	–	0.778	0.769	0.736	0.739	0.137
SW 900	0.855	0.63	0.213	0.148	0.173	0.476	0.485	0.224	0.169	0.152	0.467	0.529	0.6	0.172	0.0691	–	–	–	–	–
LCLC-97TM1	0.343	0.431	0.264	0.0586	0.0773	0.189	0.17	0.16	0.166	0.0769	0.448	0.468	0.41	0.236	0.154	0.452	0.27	0.339	0.329	0.358
HCC-15	0.763	0.734	0.662	0.108	0.0913	0.213	0.199	0.215	0.13	0.1	0.472	0.452	0.434	0.107	0.0823	0.768	0.821	0.741	0.776	0.689
CAL-12T	0.625	0.675	0.62	0.282	0.199	1.25	1.26	1.24	1.15	0.123	0.608	0.489	0.442	0.17	0.109	0.511	0.797	0.492	0.382	0.105
NCI-H727	0.673	0.968	0.681	0.803	0.176	–	–	–	–	–	0.398	–	0.41	0.295	0.17	0.828	0.792	0.832	0.87	0.605
ABC-1	0.897	0.922	0.374	0.342	0.424	–	–	–	–	–	0.199	0.192	0.26	0.234	0.187	1.2	1.18	1.6	1.06	0.723
NCI-H2023	0.427	0.473	0.485	0.0778	0.0633	0.25	0.247	0.246	0.0916	0.0786	0.366	0.517	0.382	0.0903	0.0763	0.764	0.638	0.6	0.601	0.568
